Like-named read-outs stand apart in the source and are kept apart here. Bridge positions count the residues as written; N and C are the ends. Square brackets hold non-standard residues; d marks the D form. Peptide text beside a SMILES is read from it.
Tests used:
[1] = test system: GH-secreting adenoma cells; conditions: for suppression of GH: 10 nM; for mean maximal GH suppression: at nanomolar concentrations; for EC50: read-out: EC50 of inhibition of GH release
Procedure: (§1) GH and PRL were measured using commercial immunoradiometric kits (Immunotech, Marseilles, France). Normal GH values ranged from 0.2–2.4 μg/L; normal PRL values ranged from 1–24 μg/L in women and from 1–17 μg/L in men. After an ethanol-acid extraction, the plasma IGF-I assay was performed using the IGF-I RIA kit from Nichols Institute Diagnostics (San Juan Capistrano, Calif.).
(§2) A portion of each tumor obtained at surgery was dissociated by mechanical and enzymatic methods. […] Tumor cells were initially cultured in DMEM supplemented with 10% FCS for 3 days. On day 3, the cells were washed and plated in multiwell culture dishes (Costar 3524, Brumath, France) coated with extracellular matrix from bovine endothelial corneal cells as previously described (Jaquet P, et al., 1985, Horm Res. 22:153–163.) at a density of 2×10^4 cells/well. When they were attached to the matrix on days 5–8, depending on the culture, the medium was removed and replaced with DMEM supplemented with 2% FCS, antibiotics, transferrin, and selenium as previously described (Jaquet P, et al., 1985, Horm Res. 22:153–163.). […] Each drug concentration was tested in quadruplicate.
(§3) SRIF-14 was purchased from Sigma (Saint-Quentin Fallavier, France). […] The native SRIF and SRIF analogs were dissolved in 0.01 mol/L acetic acid containing 0.1% purified serum albumin (Life Technologies, Inc., Cergy-Pontoise, France). The drugs were stored at −80 C. as 10^−3 mol/L solutions. For each experiment, fresh working solutions were prepared from a new aliquot.
(§4) The results are presented as the mean±SEM. Statistical significance between two unpaired groups was determined by the Mann-Whitney test. To measure the strength of association between the pairs of variables without specifying dependencies, Spearman order correlation's were used. P<0.05 was considered significant for all tests.

[2] = test system: mixed GH-/PRL-secreting tumor cells; assay: Inhibition of PRL release in mixed GH-/PRL-secreting tumor cell cultures; type: cell-based, human; conditions: five tumor cell cultures (A1, A2, A7, A9, A10); for mean maximal PRL suppression: at 10 nmol/L
Procedure: as §1, §2, §3, §4

GH = assay: Acute octreotide test in acromegalic patients (GH decrease); type: in vivo, human; conditions: for mean GH suppression: single 200 μg injection, GH 2–6 h after injection vs basal; for Percent inhibition vs. GH basal value: 2–6 h after 200 μg sc; for GH under octreotide: mean GH 2–6 h after 200 μg sc
Procedure: Ten acromegalic patients (seven women and three men), aged 26–62 years, presenting with macroadenoma were studied. Their endocrine status and the neuroradiological characterization of the pituitary adenomas were documented before treatment. Basal GH levels were the mean of three random samples obtained between 0800–0900 h. The basal IGF-I value was evaluated under fasting conditions between 0800–0900 h. […] All patients underwent transsphenoidal surgery.
as §1

[3] = octreotide partially responsive tumors (A6–A10)
[4] = octreotide-sensitive tumors (A1–A5)

CC[C@@H]1NC(=O)[C@H](CCCCN)NC(=O)[C@@H](Cc2c[nH]c3ccccc23)NC(=O)[C@H](Cc2ccc(O)cc2)NC(=O)[C@@H](NC(=O)[C@@H](Cc2ccccc2)NS(=O)(=O)CCN2CCN(CCO)CC2)CSSC[C@@H](C(=O)N[C@H](C(N)=O)[C@@H](C)O)NC1=O [Compound A]
maximal GH suppression [1, 3]: 31±5%
maximal mean GH suppression ([1]; octreotide-sensitive tumors (A1–A5), at 0.1 nmol/L): 41±7%
mean maximal PRL inhibition [2]: 34±5%

C[C@@H](O)[C@@H]1NC(=O)[C@H](CCCCN)NC(=O)[C@@H](Cc2c[nH]c3ccccc23)NC(=O)[C@H](Cc2ccccc2)NC(=O)[C@H](Cc2ccccc2)NC(=O)[C@@H](N)CSSC[C@@H](C(N)=O)NC(=O)[C@H](Cc2ccccc2)NC1=O [Compound B] (H-CFF[dW]KTFC-NH2; disulfide 1-8)
maximal GH suppression [1, 3]: 38±7%
concentration producing maximal inhibition of GH release [1, 4]: 10 nmol/L
mean maximal PRL inhibition [2]: 52±6%

CC(C)[C@@H]1NC(=O)[C@H](CCCCN)NC(=O)[C@@H](Cc2c[nH]c3ccccc23)NC(=O)[C@H](Cc2ccc(O)c(I)c2)NC(=O)[C@@H](NC(=O)[C@H](N)Cc2ccccc2)CSSC[C@@H](C(=O)N[C@H](C(N)=O)[C@@H](C)O)NC1=O [Formula (I), D-Phe-c(Cys-Tyr(I)-D-Trp-Lys-Val-Cys)-Thr-NH2]
maximal GH suppression [1, 3]: 44±5%
suppression of GH [1, 3]: 44±5%
mean maximal GH suppression [1, 4]: 44±5%
mean maximal PRL suppression [2]: 51±5%

C[C@H](N)C(=O)NCC(=O)N[C@H]1CSSC[C@@H](C(=O)O)NC(=O)[C@H](CO)NC(=O)[C@H]([C@@H](C)O)NC(=O)[C@H](Cc2ccccc2)NC(=O)[C@H]([C@@H](C)O)NC(=O)[C@H](CCCCN)NC(=O)[C@H](Cc2c[nH]c3ccccc23)NC(=O)[C@H](Cc2ccccc2)NC(=O)[C@H](Cc2ccccc2)NC(=O)[C@H](CC(N)=O)NC(=O)[C@H](CCCCN)NC1=O [Somatostatin-14]
maximal GH suppression compared with Compound B [1, 3]: equally achieved
dose-related inhibition of PRL release compared with Compound B [2]: similarly achieved

Octreotide
suppression of GH [1, 3]: 26±7%
mean maximal GH suppression [1, 4]: 36±7%
EC50 ([1]; cultures from the 5 octreotide partially responsive tumors (A6–A10)): 0.2 ± 0.145 nM
EC50 ([1]; cultures from the 5 octreotide-sensitive tumors (A1–A5), 8-h period): 0.055 ± 0.015 nM
mean maximal PRL suppression [2]: 34±7%
mean GH suppression (GH; five full octreotide responders): 79±7%
mean GH suppression (GH; five partial octreotide responders): 33±6%
Percent inhibition vs. GH basal value (GH; patient A1): 91%
GH under octreotide (GH; patient A1, basal 11): 1 µg/L
Percent inhibition vs. GH basal value (GH; patient A2): 82%
GH under octreotide (GH; patient A2, basal 22): 4 µg/L
Percent inhibition vs. GH basal value (GH; patient A3): 76%
GH under octreotide (GH; patient A3, basal 109): 26 µg/L
Percent inhibition vs. GH basal value (GH; patient A4): 75%
GH under octreotide (GH; patient A4, basal 141): 36 µg/L
Percent inhibition vs. GH basal value (GH; patient A5): 75%
GH under octreotide (GH; patient A5, basal 47): 12 µg/L
Percent inhibition vs. GH basal value (GH; patient A6): 40%
GH under octreotide (GH; patient A6, basal 5): 3 µg/L
Percent inhibition vs. GH basal value (GH; patient A7): 39%
GH under octreotide (GH; patient A7, basal 26): 15.8 µg/L
Percent inhibition vs. GH basal value (GH; patient A8): 37%
GH under octreotide (GH; patient A8, basal 13): 8.2 µg/L
Percent inhibition vs. GH basal value (GH; patient A9): 29%
GH under octreotide (GH; patient A9, basal 141): 100 µg/L
Percent inhibition vs. GH basal value (GH; patient A10): 23%
GH under octreotide (GH; patient A10, basal 195): 151 µg/L
